From publication PMC7144195, “Synthesis, antitumor activity, and molecular docking study of 2-cyclopentyloxyanisole derivatives: mechanistic study of enzyme inhibition” (Journal of Enzyme Inhibition and Medicinal Chemistry, 2020)
Like-named read-outs stand apart in the source and are kept apart here.

What was measured:
MCF-7 cell line = test: In vitro antitumor MTT assay, MCF-7; type: cell-based
Protocol: (§3) The antitumor activity was performed by using the tetrazolium salt 3-(4,5-dimethyl-2-thiazolyl)-2,5-diphenyl-2H-tetrazolium bromide (MTT) assay in accordance with an established method[39].

COX-2 = target: T1, COX-2 (Ovis aries, UniProt P79208); test: Colorimetric COX-2 inhibition assay (Cayman kit 560101); type: biochemical; conditions: means of three determinations
T1 construct: purchased Cayman Chemical 560101
T1 sequence (P79208 17-603): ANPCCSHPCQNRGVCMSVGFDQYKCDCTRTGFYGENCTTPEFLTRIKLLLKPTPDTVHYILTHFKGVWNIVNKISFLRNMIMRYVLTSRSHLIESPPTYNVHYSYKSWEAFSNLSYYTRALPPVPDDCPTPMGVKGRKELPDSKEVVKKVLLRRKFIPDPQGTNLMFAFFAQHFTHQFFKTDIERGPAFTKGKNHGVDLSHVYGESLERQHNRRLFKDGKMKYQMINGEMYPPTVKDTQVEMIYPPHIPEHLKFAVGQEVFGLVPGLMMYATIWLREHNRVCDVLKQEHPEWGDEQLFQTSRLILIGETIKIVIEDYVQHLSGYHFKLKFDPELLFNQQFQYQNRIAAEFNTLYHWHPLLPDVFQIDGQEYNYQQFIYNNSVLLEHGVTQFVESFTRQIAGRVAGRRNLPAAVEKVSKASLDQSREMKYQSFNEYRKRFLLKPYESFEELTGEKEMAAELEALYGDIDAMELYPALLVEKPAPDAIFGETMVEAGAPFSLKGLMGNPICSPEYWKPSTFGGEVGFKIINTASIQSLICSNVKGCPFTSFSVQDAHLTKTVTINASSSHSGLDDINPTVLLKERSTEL

TNF-α = TNF-α inhibition assay (human-specific sandwich ELISA); type: biochemical; conditions: read-out: IC50 (µM) TNFα inhibition
Protocol: The concentration of TNF-α was measured by human-specific sandwich enzyme-linked immunosorbent assay (ELISA) in accordance with the manufacturer’s instructions (no. 589201, Cayman Chemical, Ann Arbour, MI)[43]^,[44].
TNF-α has been reported as a target for cancer treatment; presently, TNF antagonists are under clinical investigation in phase I and II trials as single agents for cancer therapy. […].

HePG2 cell line = test: In vitro antitumor MTT assay, HePG2; type: cell-based
Protocol: (§1) The antitumor activity was performed by using the tetrazolium salt 3-(4,5-dimethyl-2-thiazolyl)-2,5-diphenyl-2H-tetrazolium bromide (MTT) assay in accordance with an established method.
(§2) Compounds 3a–c, 4a,b, 5a,b, 6a,b, 7a–e, 8, 9a–c, 10, 11, 12a–c, 13, and 14 were screened for their in vitro antitumor activity by using the standard 3-(4,5-dimethylthiazol-2-yl)-2,5-diphenyltetrazolium bromide (MTT) assay against five human cancers: HePG2, HCT-116, MCF-7, PC3, and HeLa cell lines. […].

PDE4B = PDE4B (Homo sapiens, UniProt Q07343); test: PDE4B inhibition assay; type: biochemical; conditions: read-out: IC50 (µM) PDE-4B inhibition
Chain of PDE4B (Q07343 whole entry): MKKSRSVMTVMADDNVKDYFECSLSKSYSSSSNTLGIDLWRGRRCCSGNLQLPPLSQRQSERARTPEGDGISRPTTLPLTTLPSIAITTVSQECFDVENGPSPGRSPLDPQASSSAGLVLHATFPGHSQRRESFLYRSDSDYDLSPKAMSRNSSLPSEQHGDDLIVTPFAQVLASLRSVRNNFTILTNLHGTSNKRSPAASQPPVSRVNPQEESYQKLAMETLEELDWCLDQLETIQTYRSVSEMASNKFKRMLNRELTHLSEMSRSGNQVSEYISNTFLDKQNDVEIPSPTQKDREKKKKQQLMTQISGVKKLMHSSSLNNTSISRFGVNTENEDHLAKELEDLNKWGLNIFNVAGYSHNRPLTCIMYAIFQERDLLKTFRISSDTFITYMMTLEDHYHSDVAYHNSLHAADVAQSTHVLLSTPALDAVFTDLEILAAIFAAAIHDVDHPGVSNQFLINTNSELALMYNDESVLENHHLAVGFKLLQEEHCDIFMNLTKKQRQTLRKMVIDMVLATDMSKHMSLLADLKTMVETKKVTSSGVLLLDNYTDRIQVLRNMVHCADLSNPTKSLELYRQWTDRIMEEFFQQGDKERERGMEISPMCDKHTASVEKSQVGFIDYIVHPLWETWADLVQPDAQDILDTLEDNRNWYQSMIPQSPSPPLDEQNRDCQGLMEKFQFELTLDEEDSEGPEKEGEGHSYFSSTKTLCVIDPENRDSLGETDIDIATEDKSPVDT

PC3 cell line = test: In vitro antitumor MTT assay, PC3; type: cell-based
Protocol: as §3

HeLa cell line = test: In vitro antitumor MTT assay, HeLa; type: cell-based
Protocol: as §1, §2

[1] = test system: HePG2, HCT-116, MCF-7, PC3, and HeLa cell lines; test: In vitro antitumor MTT assay, panel of five human cancer cell lines (text summaries); type: cell-based; conditions: read-out: IC50, antitumor activity, range over the tested cancer cell lines
Protocol: as §1, §2

HCT-116 cell line = test: In vitro antitumor MTT assay, HCT-116; type: cell-based
Protocol: as §3

[2] = Homo sapiens, MCF7; read-out: IC50 (µM) MCF-7
[3] = Homo sapiens, HepG2; read-out: IC50 (µM) HePG2
[4] = Homo sapiens, PC-3; read-out: IC50 (µM) PC3
[5] = Homo sapiens; read-out: IC50 (µM) HeLa
[6] = Homo sapiens, range over (all or some of) HePG2, HCT-116, MCF-7, PC3, HeLa
[7] = Homo sapiens, HCT-116; read-out: IC50 (µM) HCT-116
[8] = range over (all or some of) HePG2, HCT-116, MCF-7, PC3, HeLa

| Structure (SMILES) | IC50 (MCF-7 cell line; [2]) | IC50 (COX-2) | IC50 (TNF-α) | IC50 (HePG2 cell line; [3]) | IC50 (PDE4B) | IC50 (PC3 cell line; [4]) | IC50 (HeLa cell line; [5]) | IC50 [1, 6] | IC50 (HCT-116 cell line; [7]) | IC50 [1, 8] | melting point | IC50 (MCF-7 cell line; Homo sapiens, MCF7, read-out: IC50 (µM) MCF-7) | IC50 (HePG2 cell line; Homo sapiens, HepG2, read-out: IC50 (µM) HePG2) | IC50 (PC3 cell line; Homo sapiens, PC-3, read-out: IC50 (µM) PC3) | IC50 (HeLa cell line; Homo sapiens, read-out: IC50 (µM) HeLa) | IC50 ([1]; Homo sapiens) | IC50 (HCT-116 cell line; Homo sapiens, HCT-116, read-out: IC50 (µM) HCT-116) |
| --- | --- | --- | --- | --- | --- | --- | --- | --- | --- | --- | --- | --- | --- | --- | --- | --- | --- |
| COc1ccc(-c2nc3c4ccccc4c4ccccc4c3n2-c2ccccc2)cc1OC1CCCC1 [Compound 7b, 2-(3-(Cyclopentyloxy)-4-methoxyphenyl)-1-phenyl-1H-phenanthro[9,10-d]imidazole] | 11.8 ± 1.3 µM | 24 µM | 13.9 µM | 13.7 ± 1.2 µM | 5.65 µM | 22.9 ± 1.9 µM | 17.2 ± 1.5 µM | – | 19.7 ± 1.4 µM | 11.8 to 22.9 µM | 295 to 297 °C | – | – | – | – | – | – |
| COc1ccc(C=C2CN(C)CCC2=O)cc1OC1CCCC1 [Compound 4a, 3-(3-(Cyclopentyloxy)-4-methoxybenzylidene)-1-methylpiperidin-4-one] | 5.13 ± 0.3 µM | 3.34 µM | 2.01 µM | 6.04 ± 0.5 µM | 5.62 µM | 9.18 ± 0.8 µM | 7.24 ± 0.7 µM | 4.38 to 22.9 µM | 4.38 ± 0.4 µM | 4.38 to 9.18 µM | 253 to 255 °C | – | – | – | – | – | – |
| Cc1ccc(-c2cc(C(F)(F)F)nn2-c2ccc(S(N)(=O)=O)cc2)cc1 [Celecoxib, celecoxib, reference compound] | – | – | 6.44 µM | – | – | – | – | – | – | – | – | 31.3 ± 2.5 µM | 25.6 ± 2.3 µM | 30.7 ± 2.7 µM | 36.1 ± 2.8 µM | 25.6 to 36.1 µM | 29.5 ± 2.1 µM |

Continued, in another order:

| IC50 (MCF-7 cell line; [2]) | IC50 (COX-2) | IC50 (TNF-α) | IC50 (HePG2 cell line; [3]) | IC50 (PDE4B) | IC50 (PC3 cell line; [4]) | IC50 (HeLa cell line; [5]) | IC50 [1, 6] | IC50 (HCT-116 cell line; [7]) | IC50 [1, 8] | melting point | Structure (SMILES) | IC50 (MCF-7 cell line; Homo sapiens, MCF7, read-out: IC50 (µM) MCF-7) | IC50 (HePG2 cell line; Homo sapiens, HepG2, read-out: IC50 (µM) HePG2) | IC50 (PC3 cell line; Homo sapiens, PC-3, read-out: IC50 (µM) PC3) | IC50 (HeLa cell line; Homo sapiens, read-out: IC50 (µM) HeLa) | IC50 ([1]; Homo sapiens) | IC50 (HCT-116 cell line; Homo sapiens, HCT-116, read-out: IC50 (µM) HCT-116) |
| --- | --- | --- | --- | --- | --- | --- | --- | --- | --- | --- | --- | --- | --- | --- | --- | --- | --- |
| 6.93 ± 0.5 µM | 1.88 µM | 6.72 µM | 8.71 ± 0.7 µM | 3.98 µM | 11.5 ± 1.1 µM | 5.86 ± 0.6 µM | 5.86 to 20.1 µM | 7.66 ± 0.6 µM | – | – | COc1ccc(-c2[nH]c(=S)[nH]c(=O)c2C#N)cc1OC1CCCC1 [Compound 13, 6-(3-(cyclopentyloxy)-4-methoxyphenyl)-4-oxo-2-thioxo-1,2,3,4-tetrahydropyrimidine-5-carbonitrile] | – | – | – | – | – | – |
| 7.18 ± 0.8 µM | 1.08 µM | 17.7 µM | 11 ± 1.1 µM | 11.6 µM | 14.3 ± 1.2 µM | 8.56 ± 0.9 µM | 4.38 to 22.9 µM | 9.48 ± 0.8 µM | 7.18 to 14.3 µM | 249 to 251 °C | CCN1CCC(=O)C(=Cc2ccc(OC)c(OC3CCCC3)c2)C1 [Compound 4b, 3-(3-(Cyclopentyloxy)-4-methoxybenzylidene)-1-ethylpiperidin-4-one] | – | – | – | – | – | – |
